Tests used:
equine serum BChE [1] = target: T1, equine serum BChE (Equus caballus, UniProt P81908); assay: Kinetic study of BChE inhibition (Lineweaver-Burk); type: biochemical
T1 construct: purchased Sigma-Aldrich; host or cells: equine serum
Experimental: (§1) Mechanisms of human erythrocyte AChE and equine serum BChE inhibition were assessed via a thorough analysis of enzyme kinetics. Residual activity was measured following 5 min incubation at 25 °C with three increasing concentrations of inhibitor and six decreasing substrate concentrations.

Human erythrocyte AChE [2] = target: T2, Human erythrocyte AChE (Homo sapiens, UniProt P22303); assay: Kinetic study of AChE inhibition (Lineweaver-Burk); type: biochemical
T2 construct: purchased Sigma-Aldrich; host or cells: human erythrocytes
Experimental: as §1

[3] = Ferric reducing antioxidant power (FRAP) assay; settings: Trolox equivalents; n=3, 1 h, 37 °C; mean ± SEM
Experimental: The FRAP (Ferric Reducing Antioxidant Power) assay measures the ability of antioxidants to reduce the ferric 2,4,6-tripyridyl-s-triazine complex [Fe(TPTZ)2]^3+ to the intensely blue-colored ferrous complex [Fe(TPTZ)2]^2+ with an absorption maximum at λ = 593 nm. The reducing ability of a compound is an indicator of its potential antioxidant activity.
The ferric reducing ability of the compounds was determined by a previously described method as a microplate-adapted version described in [42]. 2,4,6-tris(pyridin-2-yl)-1,3,5-triazine (TPTZ), FeCl3·6H2O, Trolox, ascorbic acid and DMSO were obtained from Sigma-Aldrich Chemical Co (St. Louis, MO, USA). The FRAP reagent was prepared by mixing acetate buffer (0.3 M, pH 3.6), TPTZ (10 mM in 40 mM HCl) and FeCl3·6H2O (20 mM in distilled water) in a ratio of 10:1:1 immediately before use. Compounds were dissolved in DMSO and tested in the concentration range of 1×10^−6–1×10^−4 M. The solvent content in the reaction mixture was 4% (v/v). The test compounds (10 µL) were added to the FRAP reagent solution (240 µL) and mixed thoroughly. The reaction was carried out at 37 °C in the dark, the incubation time was 1 h. The absorbance at 600 nm was monitored spectrophotometrically by a FLUOStar OPTIMA microplate reader (BMG Labtech, Germany) at 37 °C. Trolox was used as a standard antioxidant, ascorbic acid as a reference compound. Values were obtained from four replicates of each sample and three independent experiments.
The ferric reducing ability of compounds was expressed as TE units (antioxidant activity in Trolox equivalent) with the values calculated as the ratio of the concentrations of Trolox and the test compound resulting in the same effect.

Human erythrocyte AChE [4] = target: T2, Human erythrocyte AChE; assay: biochemical; settings: human erythrocyte AChE; 5 min incubation, 25 °C, pH 7.5; mean ± SEM, n = 3; read-out: Inhibitory activity against AChE, IC50
Experimental: (§2) The assay solution consisted of 0.1 M K/Na phosphate buffer pH 7.5, 25 °C, 0.33 mM DTNB, 0.02 unit/mL AChE or BChE, and 1 mM substrate (ATCh or BTCh, respectively). Reagent blanks consisted of reaction mixtures without substrates.
(§3) Each experiment was performed in triplicate.

equine serum BChE [5] = target: T1, equine serum BChE; assay: biochemical; settings: equine serum BChE; 5 min incubation, 25 °C, pH 7.5; mean ± SEM, n = 3; read-out: Inhibitory activity against BChE, IC50
Experimental: as §2, §3

[6] = ABTS radical cation scavenging activity assay; parameters: key to ABTS•+-scavenging activity, TEAC: ratio of slopes, tested compound vs Trolox (Trolox = 1); settings: n=3, 1 h, 30 °C
Experimental: Radical scavenging activity of the compounds was evaluated by the ABTS radical cation (ABTS^•+) scavenging assay showing the ability of the compounds to decolorize the ABTS^•+ solution [86] with some modifications. Trolox was used as the antioxidant standard; ascorbic acid was used as the comparison compound. All tested compounds and standards were dissolved in DMSO.
The solution of ABTS^•+ was produced by mixing 7 mM ABTS aqueous solution with 2.45 mM potassium persulfate aqueous solution in equal quantities and allowing them to react for 12–16 h at room temperature in the dark. Radical scavenging capacity of the compounds was analyzed by mixing 10 µL of compound with 240 µL of ABTS^•+ working solution in ethanol (100 µM final concentration), and after 1 h of incubation at 30 °C the decrease in absorbance was measured spectrophotometrically at 734 nm using a Bio-Rad xMark microplate UV/VIS spectrophotometer (Bio-Rad, Hercules, CA, USA). The compounds were tested in the concentration range 5 × 10^−7–1 × 10^−4 M. Ethanol blanks were run in each assay. Values were obtained from five replicates of each sample and three independent experiments.
Antioxidant activity was reported as Trolox equivalent antioxidant capacity (TEAC values), consisting of the ratio between the slopes obtained from the linear correlation for concentrations of the tested compounds and Trolox with absorbance of ABTS radical. […] The calculations were carried out using Origin 6.1 for Windows (OriginLab, Northampton, MA, USA). Results are presented as mean ± SEM calculated using GraphPad Prism version 6.05 for Windows, GraphPad Software (San Diego, CA, USA).

porcine liver CES [7] = assay: CES inhibition, 4-nitrophenyl acetate hydrolysis; settings: compound 20 μM; mean ± SEM, n = 3; n.a. = not active
Experimental: Final enzyme and substrate (4-nitrophenyl acetate) concentrations were 0.02 unit/mL and 1 mM, respectively. Assays were carried out with a blank containing all constituents except porcine CES to assess non-enzymatic hydrolysis. Measurements were performed with a FLUOStar Optima microplate reader (BMG Labtech, Ortenberg, Germany). Compounds were dissolved in DMSO; the incubation mixture contained 2% (v/v) solvent. The primary evaluation of the inhibitory activity of the compounds was performed by determining the degree of the enzyme inhibition at a compound concentration of 20 µM. For this, a sample of the corresponding enzyme was incubated with the test compound for 5 min; then the enzyme residual activity was determined. Each experiment was performed in triplicate. […] Substrate was then added and residual enzyme activity relative to an inhibitor-free control was measured using a FLUOStar Optima microplate reader.

EeAChE PAS = target: T3, EeAChE PAS (Electrophorus electricus, UniProt O42275); assay: biochemical; type: binding; settings: 0.25 h; compound 20 μM, EeAChE 7 μM, propidium iodide 8 μM; n.a. = not active; read-out: % Displacement of Propidium from the EeAChE PAS at 20 μM
T3 construct: purchased Sigma-Aldrich type VI-S; host or cells: electric eel
Experimental: Electrophorus electricus (EeAChE) (electric eel, type VI-S, lyophilized powder, Sigma-Aldrich, St. Louis, MO, USA) was used owing to its high degree of purification, high activity, and lower cost than human AChE (hAChE). […] To determine the degree of displacement (% displacement) of propidium from the PAS of AChE, EeAChE (final concentration, 7 μM) was incubated with the test compound at a concentration of 20 μM in 1 mM Tris-HCl buffer pH 8.0, 25 °C, for 15 min. Then, propidium iodide solution (final concentration, 8 μM) was added, the samples were incubated for 15 min, and the fluorescence spectrum (530 nm (excitation) and 600 nm (emission)) was taken. […] The blank contained propidium iodide of the same concentration in 1 mM Tris-HCl buffer, pH 8.0 at 25 °C. The measurements were carried out in triplicate on a FLUOStar Optima microplate reader (LabTech, Ortenberg, Germany), and the results were calculated by the following formula:% Displacement = 100 − (IFAChE + Propidium + inhibitor / IFAChE + Propidium) × 100 (1) where IFAChE + Propidium is the fluorescence intensity of the propidium associated with AChE in the absence of the test compound (taken as 100%), and IFAChE + Propidium + inhibitor is the fluorescence intensity of the propidium associated with AChE in the presence of the test compound.

[8] = parameters: method as in PMID 33831780; settings: cited from earlier work
porcine liver CES [9] = test system: porcine liver CES; parameters: method as in PMID 33831780; settings: cited from earlier work
[10] = Lineweaver-Burk plot, changes in Km and Vmax

T1 sequence (P81908 whole entry): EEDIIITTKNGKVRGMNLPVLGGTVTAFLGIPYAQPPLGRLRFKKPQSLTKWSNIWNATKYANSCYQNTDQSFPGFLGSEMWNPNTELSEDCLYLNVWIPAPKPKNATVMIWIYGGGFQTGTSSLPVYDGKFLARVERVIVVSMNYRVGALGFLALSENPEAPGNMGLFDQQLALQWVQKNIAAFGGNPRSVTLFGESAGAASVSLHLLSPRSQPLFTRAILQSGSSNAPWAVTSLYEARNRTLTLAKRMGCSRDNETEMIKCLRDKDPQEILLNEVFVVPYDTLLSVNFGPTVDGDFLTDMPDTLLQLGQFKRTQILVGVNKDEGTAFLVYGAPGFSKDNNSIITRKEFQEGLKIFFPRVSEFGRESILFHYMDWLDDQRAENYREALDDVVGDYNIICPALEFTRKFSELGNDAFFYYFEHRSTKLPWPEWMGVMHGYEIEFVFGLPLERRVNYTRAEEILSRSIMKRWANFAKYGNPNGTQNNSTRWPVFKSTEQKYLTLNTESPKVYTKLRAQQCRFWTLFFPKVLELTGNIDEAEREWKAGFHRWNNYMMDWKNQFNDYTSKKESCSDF
T2 sequence (P22303 32-617 isoform P22303-2 limits assumed): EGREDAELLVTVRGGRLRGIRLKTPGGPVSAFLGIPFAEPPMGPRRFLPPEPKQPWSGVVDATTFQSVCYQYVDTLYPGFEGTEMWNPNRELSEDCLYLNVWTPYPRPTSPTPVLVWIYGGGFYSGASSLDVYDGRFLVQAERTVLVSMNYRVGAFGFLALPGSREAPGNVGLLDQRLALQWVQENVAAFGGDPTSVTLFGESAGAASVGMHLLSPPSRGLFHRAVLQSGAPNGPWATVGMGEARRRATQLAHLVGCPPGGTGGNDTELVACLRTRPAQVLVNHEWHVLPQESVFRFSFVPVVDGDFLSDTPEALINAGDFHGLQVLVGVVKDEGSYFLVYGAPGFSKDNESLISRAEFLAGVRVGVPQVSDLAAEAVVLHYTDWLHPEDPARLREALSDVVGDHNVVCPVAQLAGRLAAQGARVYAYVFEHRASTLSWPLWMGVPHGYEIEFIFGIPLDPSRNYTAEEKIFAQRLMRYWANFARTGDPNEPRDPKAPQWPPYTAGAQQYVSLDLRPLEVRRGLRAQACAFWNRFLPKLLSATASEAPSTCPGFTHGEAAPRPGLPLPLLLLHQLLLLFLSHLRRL
T3 sequence (O42275 24-633): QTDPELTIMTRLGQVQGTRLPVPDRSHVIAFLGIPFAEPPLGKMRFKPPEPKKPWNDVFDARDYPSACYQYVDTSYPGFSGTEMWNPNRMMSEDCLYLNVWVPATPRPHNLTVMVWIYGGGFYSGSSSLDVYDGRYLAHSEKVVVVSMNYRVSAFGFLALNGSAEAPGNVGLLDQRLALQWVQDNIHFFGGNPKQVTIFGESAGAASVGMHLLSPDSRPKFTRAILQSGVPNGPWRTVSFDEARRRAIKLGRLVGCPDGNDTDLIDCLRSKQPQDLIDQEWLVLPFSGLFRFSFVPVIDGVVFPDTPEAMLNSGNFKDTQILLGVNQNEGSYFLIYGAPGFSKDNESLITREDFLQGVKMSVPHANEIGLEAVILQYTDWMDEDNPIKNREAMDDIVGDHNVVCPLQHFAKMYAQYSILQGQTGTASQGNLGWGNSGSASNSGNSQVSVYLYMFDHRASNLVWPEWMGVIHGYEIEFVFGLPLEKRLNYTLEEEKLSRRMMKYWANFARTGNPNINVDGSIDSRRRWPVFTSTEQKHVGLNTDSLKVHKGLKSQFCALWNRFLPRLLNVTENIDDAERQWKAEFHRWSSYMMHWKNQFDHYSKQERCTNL

SMILES	Type of BChE inhibition (equine serum BChE [1]; [10])	αKi (noncompetitive component), BChE (equine serum BChE [1]; mixed type inhibition) [µM]	Ki (equine serum BChE [1]; mixed type inhibition, read-out: Ki (competitive component), BChE) [nM]	Type of AChE inhibition (Human erythrocyte AChE [2]; [10])	αKi (noncompetitive component), AChE (Human erythrocyte AChE [2]; mixed type inhibition) [µM]	Ki (Human erythrocyte AChE [2]; mixed type inhibition, read-out: Ki (competitive component), AChE) [nM]	FRAP (Fe3+-reducing activity), TE [3]	IC50 (Human erythrocyte AChE [4]) [nM]	IC50 (equine serum BChE [5]) [nM]	ABTS•+-scavenging activity, TEAC ([6]; Trolox equivalent antioxidant capacity, mean ± SEM)	IC50 ([6]; concentration for 50% reduction of ABTS radical cation) [µM]	Inhibitory activity against CES, % inhibition at 20 μM (porcine liver CES [7]) [%]	inhibition at 20 µM (EeAChE PAS) [%]	radical-scavenging activity in the ABTS assay [8]	inhibitory activity against CES (porcine liver CES [9])
CC(=O)C(/N=N/c1ccc(C)cc1)=C(\C)NCCCCCCNc1c2c(nc3ccccc13)CCCC2 [6b]	mixed type of inhibition	0.224 ± 0.022	95 ± 8	mixed type of inhibition	0.473 ± 0.041	254 ± 18	0.48 ± 0.04	342 ± 15	138 ± 2	1.00 ± 0.02	18.6 ± 1.4	29.0 ± 0.1	19 ± 1.3		
Cc1ccc(NN=C(C(=O)c2ccccc2)C(=O)C(F)(F)F)cc1 [1d, 4,4,4-trifluoro-2-[2-(4-methylphenyl)hydrazinylidene]-1-phenylbutane-1,3-dione]														high radical-scavenging activity	
CC(=O)C(=NNc1ccc(C)cc1)C(=O)C(F)(F)F [1c, 1,1,1-trifluoro-3-[2-(4-methylphenyl)hydrazinylidene]pentane-2,4-dione]														high radical-scavenging activity	moderate inhibitory activity
